From patent publication US9181273B2, “Morpholine-spirocyclic piperidine amides as modulators of ion channels” (Vertex Pharmaceuticals Incorporated, priority 2011, dated 2015)

What follows are molecules tested against human NaV subtype, like NaV 1.7 (Homo sapiens, UniProt Q15858) (assay: E-VIPR optical membrane potential assay with electrical stimulation). Settings: active against one or more sodium channels; assay and NaV subtype not specified for Table 3; read-out: IC50 Binned Activity Data.
Format: cell-based
From the text: Sodium channels are voltage-dependent proteins that can be activated by inducing membrane voltage changes by applying electric fields. […] The instrument comprises a microtiter plate handler, an optical system for exciting the coumarin dye while simultaneously recording the coumarin and oxonol emissions, a waveform generator, a current- or voltage-controlled amplifier, and a device for inserting electrodes in well. Under integrated computer control, this instrument passes user-programmed electrical stimulus protocols to cells within the wells of the microtiter plate.
24 hours before the assay on E-VIPR, HEK cells expressing human NaV subtype, like NaV 1.7, are seeded in 384-well poly-lysine coated plates at 15,000-20,000 cells per well. Other subtypes are performed in an analogous mode in a cell line expressing the NaV of interest. […] Cells are grown in vented cap flasks, in 90% humidity and 10% CO2, to 100% confluence. They are usually split by trypsinization 1:10 or 1:20, depending on scheduling needs, and grown for 2-3 days before the next split.
To make the solution Add volume of 10% Pluronic F127 stock equal to volumes of CC2-DMPE+DiSBAC6(3). The order of preparation is first mix Pluronic and CC2-DMPE, then add DiSBAC6(3) while vortexing, then add Bath1+β-Cyclodextrin.
1) Pre-spot compounds (in neat DMSO) into compound plates. […] Final compound plate volume will be 80 μL (80-fold intermediate dilution from 1 μL DMSO spot; 160-fold final dilution after transfer to cell plate).
2) Prepare Hexyl Dye Solution.
3) Prepare cell plates. On the day of the assay, medium is aspirated and cells are washed three times with 100 μL of Bath1 Solution, maintaining 25 μL residual volume in each well.
4) Dispense 25 μL per well of Hexyl Dye Solution into cell plates. Incubate for 20-35 minutes at room temp or ambient conditions.
5) Dispense 80 μL per well of Bath1 into compound plates. Acid Yellow-17 (1 mM) is added and Potassium Chloride can be altered from 4.5 to 20 mM depending on the NaV subtype and assay sensitivity.
6) Wash cell plates three times with 100 μL per well of Bath1, leaving 25 μL of residual volume. Then transfer 25 uL per well from Compound Plates to Cell Plates. Incubate for 20-35 minutes at room temp/ambient condition
7) Read Plate on E-VIPR. Use the current-controlled amplifier to deliver stimulation wave pulses for typically 9 seconds and a scan rate of 400 Hz. A pre-stimulus recording is performed for 0.5 seconds to obtain the un-stimulated intensities baseline. The stimulatory waveform is applied for 9 seconds followed by 0.5 seconds of post-stimulation recording to examine the relaxation to the resting state. The stimulatory waveform of the electrical stimulation is specific for each cell type and can vary the magnitude, duration and frequency of the applied current to provide an optimal assay signal.
Data are analyzed and reported as normalized ratios of background-subtracted emission intensities measured in the 460 nm and 580 nm channels. Background intensities are then subtracted from each assay channel. Background intensities are obtained by measuring the emission intensities during the same time periods from identically treated assay wells in which there are no cells. The response as a function of time is then reported as the ratios obtained using the following formula: […]
The data is further reduced by calculating the initial (Ri) and final (Rf) ratios. These are the average ratio values during part or all of the pre-stimulation period, and during sample points during the stimulation period. The response to the stimulus R=Rf/Ri is then calculated and reported as a function of time.
Control responses are obtained by performing assays in the presence of a compound with the desired properties (positive control), such as tetracaine, and in the absence of pharmacological agents (negative control). Responses to the negative (N) and positive (P) controls are calculated as above. The compound antagonist activity A is defined as: […]

Chain of human NaV subtype, like NaV 1.7 (Q15858 whole entry): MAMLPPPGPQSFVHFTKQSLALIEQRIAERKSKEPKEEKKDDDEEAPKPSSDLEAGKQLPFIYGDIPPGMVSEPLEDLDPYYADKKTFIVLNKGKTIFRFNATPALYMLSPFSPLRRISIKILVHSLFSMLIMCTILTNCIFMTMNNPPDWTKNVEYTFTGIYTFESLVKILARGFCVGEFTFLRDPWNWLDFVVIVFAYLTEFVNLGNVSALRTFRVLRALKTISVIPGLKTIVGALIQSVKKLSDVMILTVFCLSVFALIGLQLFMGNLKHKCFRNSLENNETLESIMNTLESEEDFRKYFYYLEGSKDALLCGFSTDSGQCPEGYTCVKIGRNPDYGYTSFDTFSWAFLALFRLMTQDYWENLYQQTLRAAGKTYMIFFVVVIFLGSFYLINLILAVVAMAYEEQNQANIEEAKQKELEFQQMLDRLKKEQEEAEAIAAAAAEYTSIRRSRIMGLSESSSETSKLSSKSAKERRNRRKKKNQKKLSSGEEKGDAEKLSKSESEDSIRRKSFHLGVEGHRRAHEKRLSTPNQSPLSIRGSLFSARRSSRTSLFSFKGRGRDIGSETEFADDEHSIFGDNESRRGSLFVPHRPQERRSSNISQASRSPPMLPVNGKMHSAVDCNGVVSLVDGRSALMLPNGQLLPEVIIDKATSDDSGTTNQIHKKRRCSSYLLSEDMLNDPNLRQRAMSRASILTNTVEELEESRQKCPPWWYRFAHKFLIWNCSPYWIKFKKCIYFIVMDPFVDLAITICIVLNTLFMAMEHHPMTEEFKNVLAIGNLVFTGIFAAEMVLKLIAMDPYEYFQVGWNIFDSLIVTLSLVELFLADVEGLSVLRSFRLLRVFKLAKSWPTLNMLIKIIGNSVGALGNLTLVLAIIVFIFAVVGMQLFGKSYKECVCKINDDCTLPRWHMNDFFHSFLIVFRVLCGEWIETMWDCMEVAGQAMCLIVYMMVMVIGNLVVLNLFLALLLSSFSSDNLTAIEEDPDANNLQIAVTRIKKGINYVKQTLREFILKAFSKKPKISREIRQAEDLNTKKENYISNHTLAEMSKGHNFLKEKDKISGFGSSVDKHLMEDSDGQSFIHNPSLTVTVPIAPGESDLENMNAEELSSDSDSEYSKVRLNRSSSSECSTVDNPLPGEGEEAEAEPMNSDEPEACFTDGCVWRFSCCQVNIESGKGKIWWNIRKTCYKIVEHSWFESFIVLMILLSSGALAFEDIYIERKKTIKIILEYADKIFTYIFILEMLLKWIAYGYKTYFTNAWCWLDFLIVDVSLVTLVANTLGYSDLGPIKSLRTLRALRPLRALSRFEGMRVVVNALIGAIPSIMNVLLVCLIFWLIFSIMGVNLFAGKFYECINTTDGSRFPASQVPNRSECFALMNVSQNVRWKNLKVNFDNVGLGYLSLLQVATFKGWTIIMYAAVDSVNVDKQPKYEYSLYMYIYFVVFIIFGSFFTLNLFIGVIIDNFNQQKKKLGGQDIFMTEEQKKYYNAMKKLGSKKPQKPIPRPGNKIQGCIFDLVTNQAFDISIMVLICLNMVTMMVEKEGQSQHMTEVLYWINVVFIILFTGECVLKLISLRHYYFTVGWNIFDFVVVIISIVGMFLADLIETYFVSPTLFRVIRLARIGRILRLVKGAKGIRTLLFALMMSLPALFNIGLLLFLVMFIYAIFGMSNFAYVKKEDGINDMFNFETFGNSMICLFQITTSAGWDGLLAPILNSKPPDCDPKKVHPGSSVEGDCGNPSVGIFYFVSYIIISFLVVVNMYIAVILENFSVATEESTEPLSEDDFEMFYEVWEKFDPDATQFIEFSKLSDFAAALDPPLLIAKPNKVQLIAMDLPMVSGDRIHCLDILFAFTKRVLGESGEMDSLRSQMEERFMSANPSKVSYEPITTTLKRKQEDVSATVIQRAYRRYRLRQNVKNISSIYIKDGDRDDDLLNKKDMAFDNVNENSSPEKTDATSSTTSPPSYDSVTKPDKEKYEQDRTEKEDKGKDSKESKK

SMILES | IC50 [nM]
COCC1CN(CC2CCC2)CC2(CCN(C(=O)c3ccc(OC(C)C)c(C)c3)CC2)O1 (stereo not shown) [Compound 47] | < 2000
CC(C)Oc1ccc(C(=O)N2CCC3(CC2)CN(CC(F)F)CC(c2ccn(C)n2)O3)cc1F (stereo not shown) [Compound 263] | < 2000
Cc1cc(C(=O)N2CCC3(CC2)CN(CC(F)F)CC(c2ccccn2)O3)ccc1OC(C)C (stereo not shown) [Compound 33] | < 2000
Cc1cc(C(=O)N2CCC3(CC2)CN(CC(F)F)CC(c2ncc(C(C)(C)C)o2)O3)ccc1OC(C)C (stereo not shown) [Compound 230] | < 2000
COCC1CN(C2CCN(C(C)=O)CC2)CC2(CCN(C(=O)c3ccc(OC(C)C)c(C)c3)CC2)O1 (stereo not shown) [Compound 121] | > 5000
Cc1cc(C(=O)N2CCC3(CC2)CN(CC(F)(F)F)CC(c2ccccc2)O3)ccc1OC(C)C (stereo not shown) [Compound 301] | < 2000
CCN1CC(c2ccc(F)cc2)OC2(CCN(C(=O)c3ccc(OC(C)C)c(F)c3)CC2)C1 (stereo not shown) [Compound 259] | < 2000
COc1cc(C(=O)N2CCC3(CC2)CN(CC(F)F)C(c2ccccc2)CO3)ccc1OC(C)C (stereo not shown) [Compound 100] | < 2000
CCC1CN(c2ccccn2)CC2(CCN(C(=O)c3ccc(C(C)(C)O)c(C)c3)CC2)O1 (stereo not shown) [Compound 97] | < 2000
COc1cc(C(=O)N2CCC3(CC2)CN(CC(F)F)CC(c2ccccc2)O3)ccc1C(C)(C)O (stereo not shown) [Compound 224] | < 2000
CCC1CN(c2ccccn2)CC2(CCN(C(=O)c3ccc(C4(O)CCCC4)c(C)c3)CC2)O1 (stereo not shown) [Compound 103] | < 2000
COCC1CN(c2cccc(C(F)(F)F)c2)CC2(CCN(C(=O)c3ccc(OCC(C)(C)O)c(C)c3)CC2)O1 (stereo not shown) [Compound 225] | < 2000
COCC1CN(C(C)C)CC2(CCN(C(=O)c3ccc(OC(C)C)c(C)c3)CC2)O1 (stereo not shown) [Compound 73] | < 2000
CC(C)(O)Cc1ccc(C(=O)N2CCC3(CC2)CN(CC(F)(F)F)CC(c2ccccc2)O3)cc1F (stereo not shown) [Compound 39] | 2000 to 5000
COCC1CN(c2cccc(C)n2)CC2(CCN(C(=O)c3ccc(OC(C)C)c(C)c3)CC2)O1 (stereo not shown) [Compound 16] | < 2000
COCC1CN(c2cccc(OC)c2)CC2(CCN(C(=O)c3ccc(OC(C)C)c(C)c3)CC2)O1 (stereo not shown) [Compound 74] | < 2000
COc1cc(C(=O)N2CCC3(CC2)CN(CC(F)(F)F)CC(c2ccccc2)O3)ccc1OC(C)C (stereo not shown) [Compound 278] | < 2000
COCC1CN(C2CCC(F)(F)CC2)CC2(CCN(C(=O)c3ccc(OC(C)C)c(C)c3)CC2)O1 (stereo not shown) [Compound 220] | < 2000
CC#CCN1CC(CC)OC2(CCN(C(=O)c3ccc(OC(C)C)c(C)c3)CC2)C1 (stereo not shown) [Compound 248] | < 2000
CC#CCN1CC(CC)OC2(CCN(C(=O)c3ccc(OC(C)C)c(C#N)c3)CC2)C1 (stereo not shown) [Compound 231] | > 5000

SMILES | IC50 [nM]
O=C(c1ccc(C(F)(F)F)cn1)N1CCC2(CC1)CN(CC(F)F)CC(c1ccccc1)O2 (stereo not shown) [Compound 290] | > 5000
CC(C)Oc1ccc(C(=O)N2CCC3(CC2)CN(CC(F)F)CC(c2ncc(C(C)(C)C)o2)O3)cc1F (stereo not shown) [Compound 137] | < 2000
COCC1CN(C2CCC2)CC2(CCN(C(=O)c3ccc(OC(C)C)c(C)c3)CC2)O1 (stereo not shown) [Compound 285] | < 2000
Cc1cc(C(=O)N2CCC3(CC2)CNCC(c2ccccc2)O3)ccc1OC(C)C (stereo not shown) [Compound 163] | > 5000
COCC1CN(Cc2ccccc2)CC2(CCN(C(=O)c3ccc(OC(C)C)c(C)c3)CC2)O1 (stereo not shown) [Compound 169] | < 2000
CCS(=O)(=O)c1ccc(C(=O)N2CCC3(CC2)CN(CC(F)(F)F)CC(c2ccccc2)O3)cc1C (stereo not shown) [Compound 62] | < 2000
COCC1CN(c2ncccn2)CC2(CCN(C(=O)c3ccccc3OC(F)F)CC2)O1 (stereo not shown) [Compound 164] | > 5000
CCC1CN(c2ncccn2)CC2(CCN(C(=O)c3ccc(C4(O)CCCCC4)cc3)CC2)O1 (stereo not shown) [Compound 67] | < 2000
CCN1CC(C)(C)OC2(CCN(C(=O)c3ccc(OC(C)C)c(C)c3)CC2)C1 [Compound 28] | > 5000
O=C(c1ccc(S(=O)(=O)NC2CC2)cc1)N1CCC2(CC1)CN(CC(F)F)CC(c1ccc(F)cc1)O2 (stereo not shown) [Compound 280] | 2000 to 5000
COCC1CN(C)CC2(CCN(C(=O)c3ccc(OC(C)C)c(C)c3)CC2)O1 (stereo not shown) [Compound 32] | > 5000
Cc1cc(C2CN(CC(F)(F)F)CC3(CCN(C(=O)c4ccc(OC(C)C)c(C)c4)CC3)O2)n[nH]1 (stereo not shown) [Compound 26] | 2000 to 5000
CCCCN1CC(COC)OC2(CCN(C(=O)c3ccc(OC(C)C)c(C)c3)CC2)C1 (stereo not shown) [Compound 101] | < 2000
Cc1cc(C(=O)N2CCC3(CC2)CN(CC(F)F)CC(c2ncco2)O3)ccc1OC(C)C (stereo not shown) [Compound 209] | < 2000
CC#CCN1CC(CC)OC2(CCN(C(=O)c3ccc(OCC)c(C)c3)CC2)C1 (stereo not shown) [Compound 242] | 2000 to 5000
COCC1CN(CC(=O)OC)CC2(CCN(C(=O)c3ccc(OC(C)C)c(C)c3)CC2)O1 (stereo not shown) [Compound 215] | 2000 to 5000
Cc1cc(C(=O)N2CCC3(CC2)CN(CC(F)(F)F)CC(c2ccccc2)O3)ccc1OC1COC1 (stereo not shown) [Compound 245] | < 2000
CCC1CN(c2ncccn2)CC2(CCN(C(=O)c3ccc(C4(O)CCCC4)c(C)c3)CC2)O1 (stereo not shown) [Compound 50] | < 2000
COCC1CN(c2ncccn2)CC2(CCN(C(=O)c3ccc(OC(C)C)c(C#N)c3)CC2)O1 (stereo not shown) [Compound 303] | < 2000
CC(C)Oc1ccc(C(=O)N2CCC3(CC2)CN(CC(F)F)CC(c2ncco2)O3)cc1F (stereo not shown) [Compound 243] | < 2000

SMILES | IC50 [nM]
COCC1CN(C2COC2)CC2(CCN(C(=O)c3ccc(OC(C)C)c(C)c3)CC2)O1 (stereo not shown) [Compound 255] | > 5000
Cc1nc2cccc(C(=O)N3CCC4(CC3)CN(CC(F)(F)F)CC(c3ccccc3)O4)c2o1 (stereo not shown) [Compound 116] | < 2000
COCC1CN(c2ccnc(C)c2)CC2(CCN(C(=O)c3ccc(OC(C)C)c(C)c3)CC2)O1 (stereo not shown) [Compound 95] | > 5000
COc1cc(C(=O)N2CCC3(CC2)CN(CC(F)F)CC(c2ccccn2)O3)cc(F)c1OC(C)C (stereo not shown) [Compound 297] | < 2000
Cc1cc(C(=O)N2CCC3(CC2)CN(CC(F)F)CC(c2ccccc2F)O3)ccc1OC(C)C (stereo not shown) [Compound 44] | < 2000
CCC1CN(CC2CC2)CC2(CCN(C(=O)c3ccc(OC(C)C)c(C)c3)CC2)O1 (stereo not shown) [Compound 46] | < 2000
COCC1CN(c2cccc(C(F)(F)F)c2)CC2(CCN(C(=O)c3ccc(C(C)(C)O)c(F)c3)CC2)O1 (stereo not shown) [Compound 58] | < 2000
Cc1cc(C(=O)N2CCC3(CC2)CN(CC(F)F)CC(c2ccccc2)O3)ccc1C(C)(C)O (stereo not shown) [Compound 168] | < 2000
COCC1CN(c2ccncc2)CC2(CCN(C(=O)c3ccc(OC(C)C)c(C)c3)CC2)O1 (stereo not shown) [Compound 31] | > 5000
COCC1CN(c2ncccn2)CC2(CCN(C(=O)c3ccc(OC(C)C)c(OC)c3)CC2)O1 (stereo not shown) [Compound 173] | 2000 to 5000
Cc1nc(C(=O)N2CCC3(CC2)CN(CC(F)(F)F)CC(c2ccccc2)O3)ccc1OC(C)C (stereo not shown) [Compound 42] | < 2000
CCN1CC(c2ccccc2)OC2(CCN(C(=O)c3ccc(OC(C)C)c(C)c3)CC2)C1 (stereo not shown) [Compound 22] | < 2000
CCC1CN(c2ccccn2)CC2(CCN(C(=O)c3ccc(C4(O)CCCCC4)cc3)CC2)O1 (stereo not shown) [Compound 54] | < 2000
CC(C)(O)c1ccc(C(=O)N2CCC3(CC2)CN(CC(F)F)CC(c2ccccn2)O3)cc1F (stereo not shown) [Compound 57] | 2000 to 5000
CC(C)(O)COc1ccc(C(=O)N2CCC3(CC2)CN(CC(F)(F)F)CC(c2ccccc2)O3)cc1 (stereo not shown) [Compound 273] | 2000 to 5000
COCC1CN(CC(F)F)CC2(CCN(C(=O)c3ccc(OC(C)C)c(C)c3)CC2)O1 (stereo not shown) [Compound 178] | < 2000
CC#CCN1CC(COC)OC2(CCN(C(=O)c3ccc(OC(C)C)c(C)c3)CC2)C1 (stereo not shown) [Compound 218] | < 2000
COc1cc(F)cc(C(=O)N2CCC3(CC2)CN(CC(F)(F)F)CC(c2ccccc2)O3)c1 (stereo not shown) [Compound 71] | > 5000
